Measured values published in patent publication US9309247B2, “2-substituted imidazo[4,5-D]phenanthroline derivatives and their use in the treatment of cancer” (Aptose Biosciences Inc., priority 2013, dated 2016).

How the values were obtained:
P388D1 (mouse, lymphoma) = assay: Cell growth inhibition assay, P388D1; format: cell-based; conditions: five days of incubation, XTT; read-out: IC50 P388D1 (ms)
Description: (§1) In this study, compounds 1-8 were screened in vitro against a panel of four mouse lymphoma cell lines and two human lymphoma cell line for cell growth inhibition activity. Following treatment, half maximal inhibitory concentrations (IC50) were determined with the objective of selecting the most efficacious compounds for evaluation of in vitro absorption, distribution, metabolism, and excretion (ADME) screening.
(§2) Similarly, human Burkitt's lymphoma Ramos cells (ATCC CRL-1596) were grown in suspension in Roswell Park Memorial Institute (RPMI) 1640 medium supplemented with 10% fetal bovine serum (FBS), 10 mM HEPES KOH pH 7.4, and 2 mM sodium pyruvate. Mouse P388D1 (ATCC CCL-46) and WR19L (ATCC TIB-52) cells were grown in suspension in Dulbecco's Modified Eagle Medium (DMEM) with 10% fetal bovine serum (FBS), 10 mM HEPES, and 2 mM sodium pyruvate. Mouse WEHI231 (ATCC CRL-1702) and EL4 (ATCC TIB-39) cells were grown in suspension in DMEM with 10% fetal bovine serum (FBS), 10 mM HEPES KOH pH 7.4, 2 mM sodium pyruvate, and 0.05 mM β-mercaptoethanol. All cells were maintained at 37° C. in an atmosphere of 5% CO2 in air. Logarithmically growing cells were routinely sub-cultured twice weekly. Briefly, cells were collected by centrifugation, resuspended in pre-warmed media, and diluted 1:10 into a 75 cm^2 flask.
(§3) Cells were subcultured and 4×10^3 cells (in 50 μL) were transferred to each well in a Falcon 96-well tissue culture plate. Exemplary compounds were dissolved in pure dimethyl sulphoxide (DMSO) at a concentration of 10 mM. From this 10 mM stock solution, 12 successive serial dilutions were made in DMSO (2.5 fold dilutions), ranging from 0.52 μM to 10 mM. Using these stock dilutions, 5 μL of each were added to 500 μL of media, and 50 μL of this was added to the cells. The final concentrations being tested ranged from 0.0026 μM to 50 μM. Each concentration was tested in triplicate, and DMSO and untreated cells were also included as controls. After five days of incubation with the compounds, cell viability was determined using the XTT cell proliferation kit (Roche, Cat. No. 11 465 015 001). Following the XTT protocol, 4.5-24 hours after addition of the reagent, the plates were read in a μQuant 96-well plate spectrophotometer (Biotek Instruments Inc.) and the results analyzed to determine the IC50.

[1] = test system: non-small cell lung cancer cells HOP-92; assay: XTT cell proliferation assay, HOP-92; format: cell-based, human; conditions: 5 days incubation, read-out: Antiproliferative activity, NSCLC HOP-92
Description: [The procedure below names another cell line; the source lists this cell line under the same test.] (§4) Exemplary compounds 1-8 were tested for anti-cancer activity in vitro using human renal cancer cells (ACHN and CAK-1), human pancreatic cells (BXPC3 and SU-86-86), human prostate cancer cell (DU14), human colon carcinoma cells (HT-29 and KM-12), leukemia cells (HL60), brain cancer/tumour cells (SK-A-AS, U87-MG), and human non-small cell lung cancer cells (H460). Compounds 1-8 are the specific embodiments of Formula (I) and Formula (IV) as described above in this application.
(§5) The cells were maintained as a monolayer in a growth medium; McCoy's 5A modified medium (Sigma, St. Louis, Mo.), supplemented with 2 mM L-glutamine (Gibco, Grand Island, N.Y.), 10% fetal bovine serum (FBS) (Multicell, WISENT Inc. St-Bruno, QC), antibiotic-antimycotic (Multicell), at 37° C. in a 5% CO2-humidified incubator. Cells were transferred onto 150 mm tissue culture plates and grown until sub-confluency (70-80%) prior to their use. The in vitro antiproliferative activity of compounds was evaluated by incubating the cells with varying concentrations of exemplary compounds as shown in Table 1 for 5 days. The efficacy of these compounds in this cell proliferation assay was measured based in the ability of live cells to reduce the tetrazolium salt XTT to orange colored compounds of formazan (XTT cell proliferation kit IT, Roche Applied Science, Montreal, QC).

WR19L (mouse, lymphoma) = assay: Cell growth inhibition assay, WR19L; format: cell-based; conditions: five days of incubation, XTT; read-out: IC50 WR19L (ms)
Description: as §1, §2, §3

[2] = test system: human colon carcinoma cells KM12; assay: XTT cell proliferation assay, KM12; format: cell-based; conditions: 5 days incubation, read-out: Antiproliferative activity, Colon KM12
Description: as §4, §5

[3] = test system: WEHI 231 (mouse, B-cell lymphoma); assay: Cell growth inhibition assay, WEHI231; format: cell-based; conditions: five days of incubation, XTT; read-out: IC50 WEHI231 (ms)
Description: as §1, §2, §3

[4] = test system: panel of human and mouse lymphoma cell lines; assay: Cell growth inhibition, whole lymphoma panel (mean IC50, mean rank); format: cell-based; conditions: mean over six lymphoma cell lines
Description: as §1, §3
In vitro potency was assessed using eight exemplary compounds against a panel of human and mouse lymphoma cell lines (Table 4). […] To compare the efficacy of the compounds in cell growth inhibition across the entire panel of cell lines screened, the eight compounds were ranked according to efficacy against each cell line with a numerical value of one indicating most efficacious (lowest IC50 value) and eight being the least efficacious (highest IC50 value).

[5] = test system: human Burkitt's lymphoma Ramos cells; assay: Cell growth inhibition assay, Ramos; format: cell-based; conditions: five days of incubation, XTT; read-out: IC50 Ramos (hs)
Description: as §1, §2, §3

[6] = test system: Human Burkitt's lymphoma Raji cells; assay: Cell growth inhibition assay, Raji; format: cell-based; conditions: five days of incubation, XTT; read-out: IC50 Raji (hs)
Description: as §1
Human Burkitt's lymphoma Raji cells (ATCC CCL-86) were grown in suspension in Roswell Park Memorial Institute (RPMI) 1640 medium supplemented with 10% fetal bovine serum (FBS), 10 mM HEPES KOH pH 7.4, and 2 mM sodium pyruvate at 37° C. in an atmosphere of 5% CO2 in air. Logarithmically growing cells were routinely sub-cultured twice weekly. Briefly, cells were collected by centrifugation, resuspended in pre-warmed media, and diluted 1:10 into a 75 cm^2 flask.
as §3

leukemia cells HL60 = assay: XTT cell proliferation assay, HL60; format: cell-based, human; conditions: 5 days incubation, read-out: Antiproliferative activity, Leuk. HL60
Description: as §4, §5

[7] = test system: human renal cancer cells ACHN; assay: XTT cell proliferation assay, ACHN; format: cell-based; conditions: 5 days incubation, read-out: Antiproliferative activity, Kidney ACHN
Description: as §4, §5

[8] = test system: non-small cell lung cancer cells H226; assay: XTT cell proliferation assay, H226; format: cell-based, human; conditions: 5 days incubation, read-out: Antiproliferative activity, NSCLC H226
Description: [The procedure below names another cell line; the source lists this cell line under the same test.] as §4, §5

[9] = test system: human colon carcinoma cells HT-29; assay: XTT cell proliferation assay, HT-29; format: cell-based; conditions: 5 days incubation, read-out: Antiproliferative activity, Colon HT-29
Description: as §4, §5

[10] = test system: human prostate cancer cell DU14; assay: XTT cell proliferation assay, DU14; format: cell-based; conditions: 5 days incubation, read-out: Antiproliferative activity, Pros. DU14
Description: as §4, §5

[11] = test system: human pancreatic cells BXPC3; assay: XTT cell proliferation assay, BXPC3; format: cell-based; conditions: 5 days incubation, read-out: Antiproliferative activity, Pancreas BXPC3
Description: as §4, §5

EL4 (mouse, lymphoma) = assay: Cell growth inhibition assay, EL4; format: cell-based; conditions: five days of incubation, XTT; read-out: IC50 EL4 (ms)
Description: as §1, §2, §3

[12] = test system: brain cancer/tumour cells U87-MG; assay: XTT cell proliferation assay, U87-MG; format: cell-based, human; conditions: 5 days incubation, read-out: Antiproliferative activity, Brain U87-MG
Description: as §4, §5

[13] = test system: non-small cell lung cancer cells HOP-62; assay: XTT cell proliferation assay, HOP-62; format: cell-based, human; conditions: 5 days incubation, read-out: Antiproliferative activity, NSCLC HOP-62
Description: [The procedure below names another cell line; the source lists this cell line under the same test.] as §4, §5

[14] = test system: human non-small cell lung cancer cells H460; assay: XTT cell proliferation assay, H460; format: cell-based; conditions: 5 days incubation, read-out: Antiproliferative activity, NSCLC H460
Description: as §4, §5

[15] = test system: non-small cell lung cancer cells EKVX; assay: XTT cell proliferation assay, EKVX; format: cell-based, human; conditions: 5 days incubation, read-out: Antiproliferative activity, NSCLC EKVX
Description: [The procedure below names another cell line; the source lists this cell line under the same test.] as §4, §5

[16] = test system: human pancreatic cells SU-86-86; assay: XTT cell proliferation assay, SU-86-86; format: cell-based; conditions: 5 days incubation, read-out: Antiproliferative activity, Pancreas SU-86-86
Description: as §4, §5

[17] = test system: brain cancer/tumour cells SK-N-AS; assay: XTT cell proliferation assay, SK-N-AS; format: cell-based, human; conditions: 5 days incubation, read-out: Antiproliferative activity, Brain SK-N-AS
Description: as §4, §5

[18] = test system: human renal cancer cells CAKI-1; assay: XTT cell proliferation assay, CAKI-1; format: cell-based; conditions: 5 days incubation, read-out: Antiproliferative activity, Kidney CAKI-1
Description: as §4, §5

SMILES	IC50 (P388D1 (mouse, lymphoma))	IC50 [1]	IC50 (WR19L (mouse, lymphoma))	IC50 [2]	IC50 [3]	IC50 [4]	IC50 [5]	IC50 [6]	IC50 (leukemia cells HL60)	IC50 [7]	IC50 [8]	IC50 [9]	IC50 [10]	IC50 [11]	IC50 (EL4 (mouse, lymphoma))	IC50 [12]	IC50 [13]	IC50 [14]	IC50 [15]	IC50 [16]	other results
FC1(F)Oc2ccc(-c3nc4c5cccnc5c5ncccc5c4[nH]3)cc2O1 [Compound 3]	377 nM	170 nM	59 nM	230 nM	4.2 nM	205 nM	139 nM	197 nM	150 nM	170 nM	390 nM	220 nM	170 nM	180 nM	451 nM	154 nM					
FC1(F)Oc2ccc(-c3nc4c5cccnc5c5ncccc5c4[nH]3)cc2O1 [Compound 2]	400 nM	170 nM	31 nM	220 nM	5.1 nM	189 nM	150 nM	166 nM	380 nM	170 nM	430 nM	300 nM	220 nM	180 nM	384 nM	180 nM					
FC1(F)Oc2ccc(-c3nc4c5cccnc5c5ncccc5c4[nH]3)cc2O1 [Compound 5]	414 nM	170 nM	9.3 nM	280 nM	12.6 nM	190 nM	75 nM	109 nM	110 nM	130 nM	190 nM	170 nM	180 nM	200 nM	518 nM	180 nM	210 nM	140 nM	150 nM	28 nM	IC50 [17]: 90 nM

More lines, main results first:

IC50 (P388D1 (mouse, lymphoma))	IC50 [1]	IC50 (WR19L (mouse, lymphoma))	IC50 [2]	IC50 [3]	IC50 [4]	IC50 [5]	IC50 [6]	IC50 (leukemia cells HL60)	IC50 [7]	IC50 [8]	IC50 [9]	IC50 [10]	IC50 [11]	IC50 (EL4 (mouse, lymphoma))	IC50 [12]	IC50 [13]	IC50 [14]	IC50 [15]	SMILES	IC50 [16]	other results
146 nM	160 nM	5.1 nM	583 nM	3 nM	69 nM	34 nM	25 nM	110 nM	203 nM	710 nM	285 nM	150 nM	210 nM	199 nM	190 nM				FC1(F)Oc2ccc(-c3nc4c5cccnc5c5ncccc5c4[nH]3)cc2O1 [Compound 8]		
52 nM	30 nM	< 2.6 nM	180 nM	4.2 nM	28 nM	18 nM	32 nM	50 nM	38 nM	210 nM	170 nM	130 nM	200 nM	57 nM	180 nM	30 nM	160 nM	170 nM	FC1(F)Oc2ccc(-c3nc4c5cccnc5c5ncccc5c4[nH]3)cc2O1 [Compound 6]	26 nM	IC50 [17]: 36 nM; IC50 [18]: 30 nM
